Results as given in ChEMBL document CHEMBL1208791, “Optimization of alpha-ketoamide based p38 inhibitors through modifications to the region that binds to the allosteric site” (Bioorg Med Chem Lett, 2010).

Experiments:
[1] = target: T1, Mitogen-activated protein kinase 14 (Homo sapiens, UniProt Q16539); test: Inhibition of p38 alpha activity by ELISA
[2] = target: T1, Mitogen-activated protein kinase 14; test: Inhibition of phospho-p38 alpha activity by ELISA
[3] = tested on: Blood; test: Ex vivo inhibition of […]-alpha-production in human whole blood; format: functional, tissue-based
[4] = tested on: THP-1; test: Inhibition of LPS-induced […]-alpha-production in immortalized human THP1 cells; format: functional, cell-based
[5] = AUC in rat at 10 mg/kg, iv or 30 mg/kg, po; format: ADME, organism-based; details: plasma
[6] = Cmax in rat at 10 mg/kg, iv or 30 mg/kg, po; format: ADME, organism-based; details: in vivo
[7] = Clearance in rat at 10 mg/kg, iv or 30 mg/kg, po; format: ADME, organism-based; details: in vivo
[8] = Tmax in rat at 10 mg/kg, iv or 30 mg/kg, po; format: ADME, organism-based; details: in vivo
[9] = Oral bioavailability in rat at 30 mg/kg, po; format: ADME, organism-based; details: in vivo
[10] = Volume of distribution at steady state in rat at 10 mg/kg, iv or 30 mg/kg, po; format: ADME, organism-based; details: in vivo, read-out: Vdss
[11] = Half life in rat at 10 mg/kg, iv or 30 mg/kg, po; format: ADME, organism-based; details: in vivo

T1 sequence (Q16539 whole entry): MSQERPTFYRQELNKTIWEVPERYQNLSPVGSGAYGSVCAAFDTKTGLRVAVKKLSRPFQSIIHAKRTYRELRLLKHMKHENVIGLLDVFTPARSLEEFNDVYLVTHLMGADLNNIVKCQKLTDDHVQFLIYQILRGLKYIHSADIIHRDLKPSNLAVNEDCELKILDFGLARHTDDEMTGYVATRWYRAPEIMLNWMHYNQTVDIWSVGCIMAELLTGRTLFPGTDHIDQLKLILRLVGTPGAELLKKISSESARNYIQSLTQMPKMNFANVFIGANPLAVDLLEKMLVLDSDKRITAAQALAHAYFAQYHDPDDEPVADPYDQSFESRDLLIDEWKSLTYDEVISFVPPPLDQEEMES

| Compound | IC50 [1] [nM] | IC50 [2] [nM] | other results |
| --- | --- | --- | --- |
| COc1c(NC(=O)Cc2ccc(OCCN3CCOCC3)c3ccccc23)cc(C(C)(C)C)cc1NS(C)(=O)=O | 190 | 90 | – |
| COc1c(NC(=O)C(=O)c2ccc(Nc3ccncn3)c3ccccc23)cc(C(C)(C)C)cc1NS(C)(=O)=O | 72 | 1 | – |
| COc1c(NC(=O)C(=O)c2ccc(Nc3ccncc3)c3ccccc23)cc(C(C)(C)C)cc1NS(C)(=O)=O | 25 | 2 | – |
| COc1c(C#N)cc(C(C)(C)C)cc1NC(=O)C(=O)c1ccc(Nc2ccncc2)c2ccccc12 | 51 | – | IC50 [3]: 150 nM |
| CNc1nccc(Nc2ccc(C(=O)C(=O)Nc3cc(C(C)(C)C)cc(NS(C)(=O)=O)c3OC)c3ccccc23)n1 | – | 21 | IC50 [3]: 100 nM; IC50 [4]: 8 nM |
| COc1c(NC(=O)C(=O)c2ccc(Oc3ccnc(N4CCOCC4)n3)c3ccccc23)cc(C(C)(C)C)cc1NS(C)(=O)=O | 38 | 13 | – |
| COc1c(C#N)cc(C(C)(C)C)cc1NC(=O)C(=O)c1ccc(-c2cccnc2)c2ccccc12 | 78 | – | – |
| COc1c(C#N)cc(C(C)(C)C)cc1NC(=O)C(=O)c1ccc(-c2ccncc2)c2ccccc12 | 60 | – | – |
| COc1c(C#N)cc(C(C)(C)C)cc1NC(=O)C(=O)c1ccc(-c2ccc(F)nc2)c2ccccc12 | 190 | – | – |
| COc1c(C#N)cc(C(C)(C)C)cc1NC(=O)C(=O)c1ccc(-c2ccnc(C)c2)c2ccccc12 | 22 | – | – |

Now from value to compound, other results behind:

| IC50 [1] [nM] | IC50 [2] [nM] | Compound | other results |
| --- | --- | --- | --- |
| 70 | – | COc1c(Cl)cc(C(C)(C)C)cc1NC(=O)C(=O)c1ccc(OCCN2CCOCC2)c2ccccc12 | – |
| 71 | 140 | COc1c(NC(=O)C(=O)c2ccc(OCCN3CCOCC3)c3ccccc23)cc(C(C)(C)C)cc1C(=O)NC1CC1 | – |
| 200 | – | COc1c(NC(=O)/C(=N/O)c2ccc(OCCN3CCOCC3)c3ccccc23)cc(C(C)(C)C)cc1NS(C)(=O)=O | – |
| 390 | – | COc1c(NC(=O)C(O)c2ccc(OCCN3CCOCC3)c3ccccc23)cc(C(C)(C)C)cc1NS(C)(=O)=O (centres undefined) | – |
| 250 | 310 | CC(C)(C)c1cccc(NC(=O)C(=O)c2ccc(OCCN3CCOCC3)c3ccccc23)c1 | – |
| 33 | – | CC(C)(C)c1cc(C#N)cc(NC(=O)C(=O)c2ccc(OCCN3CCOCC3)c3ccccc23)c1 | – |
| 28 | – | N#Cc1cc(NC(=O)C(=O)c2ccc(OCCN3CCOCC3)c3ccccc23)cc(N2CCOCC2)c1 | – |
| 42 | – | COc1c(C#N)cc(C(C)(C)C)cc1NC(=O)C(=O)c1ccc(OCCN2CCOCC2)c2ccccc12 | AUC [5]: 15000 ng·h/mL; Cmax [6]: 2400 ng/mL; clearance [7]: 18.3 mL/min/kg; Tmax [8]: 0.5 h; bioavailability [9]: 57%; Vd [10]: 4.9 L/kg; half-life [11]: 9.8 h |
| 250 | – | COc1ccc(C(C)(C)C)cc1NC(=O)C(=O)c1ccc(OCCN2CCOCC2)c2ccccc12 | – |
| 59 | 38 | COc1c(NC(=O)C(=O)c2ccc(OCCN3CCOCC3)c3ccccc23)cc(C(C)(C)C)cc1NS(C)(=O)=O [ITX-5061 FREE BASE] | AUC [5]: 14000 ng·h/mL; Cmax [6]: 1300 ng/mL; clearance [7]: 26.7 mL/min/kg; Tmax [8]: 3 h; bioavailability [9]: 77%; Vd [10]: 5.2 L/kg; half-life [11]: 3.5 h |
